Measurements taken from the NIST ThermoML archive (doi:10.1016/j.fluid.2006.06.017).
± gives the expanded uncertainty stated by the source.

Experiments:
[1] = Liquid; for mass density: 298.15 K, 101.33 kPa; for vapor or sublimation pressure: Ebulliometric method (Recirculating still)
[2] = refractive index (Na D-line) (dimensionless); conditions: 298.15 K; 101.33 kPa; Liquid; Standard Abbe refractometry

CCCCO [butan-1-ol]
mass density [1]: 805.65 ± 0.22 kg/m3
vapor or sublimation pressure ([1]; 351.18 K): 20 ± 1 kPa
vapor or sublimation pressure ([1]; 390.75 K): 101.3 ± 0.2 kPa
refractive index [2]: 1.3976 ± 0.0005

CCCO [propan-1-ol]
mass density [1]: 799.62 ± 0.48 kg/m3
vapor or sublimation pressure ([1]; 332.63 K): 20 ± 1 kPa
vapor or sublimation pressure ([1]; 369.75 K): 101.3 ± 0.2 kPa
refractive index [2]: 1.3836 ± 0.0005

CCCOCCC [dipropyl ether]
mass density [1]: 741.81 ± 0.56 kg/m3
vapor or sublimation pressure ([1]; 302.6 K): 10.47 ± 0.2 kPa
vapor or sublimation pressure ([1]; 306.36 K): 12.43 ± 0.2 kPa
vapor or sublimation pressure ([1]; 310.41 K): 14.95 ± 0.2 kPa
vapor or sublimation pressure ([1]; 313.39 K): 16.91 ± 0.2 kPa
vapor or sublimation pressure ([1]; 315.97 K): 18.97 ± 0.2 kPa
vapor or sublimation pressure ([1]; 317.33 K): 20 ± 1 kPa
vapor or sublimation pressure ([1]; 318.45 K): 20.97 ± 0.2 kPa
vapor or sublimation pressure ([1]; 320.69 K): 22.93 ± 0.2 kPa
vapor or sublimation pressure ([1]; 323.79 K): 25.95 ± 0.2 kPa
vapor or sublimation pressure ([1]; 326.58 K): 28.97 ± 0.21 kPa
vapor or sublimation pressure ([1]; 329.15 K): 31.95 ± 0.21 kPa
vapor or sublimation pressure ([1]; 331.52 K): 34.95 ± 0.21 kPa
vapor or sublimation pressure ([1]; 333.76 K): 37.95 ± 0.21 kPa
vapor or sublimation pressure ([1]; 335.79 K): 40.9 ± 0.21 kPa
vapor or sublimation pressure ([1]; 337.8 K): 43.95 ± 0.21 kPa
vapor or sublimation pressure ([1]; 339.62 K): 46.85 ± 0.21 kPa
vapor or sublimation pressure ([1]; 341.27 K): 49.7 ± 0.21 kPa
vapor or sublimation pressure ([1]; 343.07 K): 52.91 ± 0.22 kPa
vapor or sublimation pressure ([1]; 345.22 K): 56.95 ± 0.22 kPa
vapor or sublimation pressure ([1]; 347.19 K): 60.85 ± 0.22 kPa
vapor or sublimation pressure ([1]; 349.07 K): 64.87 ± 0.22 kPa
vapor or sublimation pressure ([1]; 351.36 K): 69.9 ± 0.22 kPa
vapor or sublimation pressure ([1]; 353.45 K): 74.84 ± 0.23 kPa
vapor or sublimation pressure ([1]; 355.48 K): 79.91 ± 0.23 kPa
vapor or sublimation pressure ([1]; 357.37 K): 84.8 ± 0.23 kPa
vapor or sublimation pressure ([1]; 359.21 K): 89.75 ± 0.23 kPa
vapor or sublimation pressure ([1]; 360.93 K): 94.65 ± 0.24 kPa
vapor or sublimation pressure ([1]; 363.16 K): 101.3 ± 0.24 kPa
refractive index [2]: 1.3784 ± 0.0005
